What was measured:
[1] = target: T1, Isocitrate dehydrogenase [NADP] cytoplasmic (Homo sapiens, UniProt O75874); assay: Inhibition of IDH1 R132C mutant (unknown origin) assessed as reduction in NADPH consumption using alpha-KG as substrate incubated for 60 mins by diaphorase and resazurin dye based assay
Target sequence in this assay (O75874 2-414 R132C limits assumed): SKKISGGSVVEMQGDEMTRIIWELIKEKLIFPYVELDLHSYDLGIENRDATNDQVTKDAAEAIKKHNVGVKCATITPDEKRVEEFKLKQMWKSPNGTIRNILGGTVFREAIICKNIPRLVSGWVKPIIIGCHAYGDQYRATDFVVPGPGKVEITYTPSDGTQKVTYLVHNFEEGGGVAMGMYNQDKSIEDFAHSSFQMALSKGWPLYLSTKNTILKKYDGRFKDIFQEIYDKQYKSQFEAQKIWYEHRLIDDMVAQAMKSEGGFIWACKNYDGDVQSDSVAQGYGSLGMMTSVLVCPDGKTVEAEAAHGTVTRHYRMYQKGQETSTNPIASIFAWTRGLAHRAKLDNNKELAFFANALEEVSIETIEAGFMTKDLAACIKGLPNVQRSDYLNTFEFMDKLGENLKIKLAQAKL

[2] = target: T1, Isocitrate dehydrogenase [NADP] cytoplasmic; assay: Inhibition of IDH1 R132H mutant (unknown origin) assessed as reduction in NADPH consumption using alpha-KG as substrate incubated for 60 mins by diaphorase and resazurin dye based assay
Target sequence in this assay (O75874 2-414 R132H limits assumed): as the sequence (O75874 2-414 R132C limits assumed) above, with C131H counted along it

[3] = target: T2, Isocitrate dehydrogenase [NADP], mitochondrial (Homo sapiens, UniProt P48735); assay: Inhibition of IDH2 R140Q mutant (unknown origin) assessed as reduction in NADPH consumption using alpha-KG as substrate incubated for 60 mins by diaphorase and resazurin dye based assay
T2 sequence (P48735 whole entry): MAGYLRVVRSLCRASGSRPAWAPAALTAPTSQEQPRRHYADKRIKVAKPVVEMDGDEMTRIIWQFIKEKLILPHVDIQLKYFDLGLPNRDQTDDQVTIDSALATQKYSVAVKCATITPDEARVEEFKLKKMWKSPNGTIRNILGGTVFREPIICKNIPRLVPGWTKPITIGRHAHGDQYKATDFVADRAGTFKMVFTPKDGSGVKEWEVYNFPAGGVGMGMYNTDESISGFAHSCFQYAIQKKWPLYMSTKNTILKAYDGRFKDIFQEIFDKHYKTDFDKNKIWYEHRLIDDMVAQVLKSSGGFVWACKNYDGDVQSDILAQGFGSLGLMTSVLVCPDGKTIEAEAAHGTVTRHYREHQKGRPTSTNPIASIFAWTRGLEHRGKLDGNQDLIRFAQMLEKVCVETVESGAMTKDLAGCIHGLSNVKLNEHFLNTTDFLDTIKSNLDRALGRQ

Measured: IC50

CC(F)(F)c1cccc(-c2nc(NC3CCC(F)(F)C3)nc(NC3CCC(F)(F)C3)n2)n1 (configuration not stated) [US10028961, Compound 105]
< 0.05 µM: all assays above

C[C@@H](Nc1nc(N[C@H](C)C2CC2)nc(-n2ccc(C(F)(F)F)n2)n1)C1CC1 [US10028961, Compound 121]
< 0.05 µM: all assays above

FC1(F)CC(Nc2nc(NC3CC(F)(F)C3)nc(-c3nc(C(F)(F)F)cs3)n2)C1 [US10028961, Compound 128]
< 0.05 µM: all assays above

FC1(F)CCC(Nc2nc(NC3CCC(F)(F)CC3)nc(-c3cncc(C(F)(F)F)n3)n2)CC1 [US10028961, Compound 160]
< 0.05 µM: all assays above
